Holding throughout (assay type): cell-based
Series [1] concerns A. baumannii. The series can be described thus: Kirby-Bauer disk diffusion susceptibility test. The following applies: 300 μg/disc. On the technique in general: Agar diffusion results depend on both activity and mobility in agar.
The subject of series [2] is P. aeruginosa. The series can be described thus: Kirby-Bauer disk diffusion susceptibility test. The following applies: 300 μg/disc.
Series [3] deals with A. flavus. The series can be described thus: Antifungal disk diffusion susceptibility test (CLSI M44). The following applies: Aspergillus flavus, A. flavus. In short, it runs like this:
(§1)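 Strains of clinical origin are cultured on Sabouraud agar for 24-48 h depending on species. Cells are suspended in distilled water and adjusted by spectrophotometry to 1-5×10^8 CFU/ml. They are then applied to Muller-Hinton agar containing 2% glucose.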

Series [4] deals with A. fumigatus. Described as above. The following applies: Aspergillus fumigatus, A. fumigatus. In short, it runs like this:
as §1

In series [5] the test system is A. niger. Described as above. The following applies: Aspergillus niger, A. niger. Put shortly:
as §1

The subject of series [6] is A. terreus. Described as above. The following applies: Aspergillus terreus, A. terreus. In short, it runs like this:
as §1

Series [7] concerns C. albicans. The series is described as above. The following applies: Candida albicans, C. albicans. Put shortly: (§2)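 Inoculum: clinical strains, 24-48 h Sabouraud agar cultures, suspended in distilled water, set to 1-5×10^8 CFU/ml by spectrophotometer. Medium: Muller-Hinton agar + 2% glucose.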
Series [8] has as its system C. guillermondii. Described as above. The following applies: C. guillermondii. In short, it runs like this: as §2
In series [9] the test system is C. lusitaniae. Described as above. The following applies: Clavispora lusitaniae, C. lusitaniae. In short, it runs like this:
as §2

For series [10], the system named is C. parapsilosis. The series is described as above. The following applies: Lodderomyces parapsilosis, C. parapsilosis. In short, it runs like this:
as §2

Series [11] relates to C. tropicalis. The series is described as above. The following applies: Candida tropicalis, C. tropicalis. Put shortly:
as §2

In series [12] the test system is S. cerevisiae. The description is as above. The following applies: Saccharomyces cerevisiae, S. cerevisiae. Put shortly:
as §2

The test system of series [13] is HIV. The series can be described thus: Anti-HIV assay, recombinant virus with Renilla reporter gene in MT-2 cells. The following applies: Human immunodeficiency virus 1, MT2, read-out: IC50 VIH MT-2 μM. The source says:
Assessment of in vitro antiviral activity is usually performed to estimate parameters of antiviral potency and efficacy represented by the percentage of inhibition of HIV activity or IC50. The assay utilized is based on the use of recombinant viruses in which the nef gene, […] for in vitro HIV replication, has been replaced by a Renilla reporter gene so that viral replication can be quantified directly (García-Perez J et al, J Med Virol. 2007 February; 79(2):127-37). The assay was performed infecting MT-2 cells or PHA-activated PBMCs/IL-2 with viral supernatants obtained previously. The study was development in AIDS Immunopathology Unit, Nacional Center of Microbiology, Institute of Health Carlos 111, Majadahonda, Madrid, Spain.
All data are expressed as percentage relative to a control with DMSO at the same concentration. Antiviral activity and toxicity curves were performed to the compound at different concentrations.
In general terms: In a reporter assay the amount or activity of a reporter protein is the signal.

Series [14] can be described thus: Cellular viability, CellTiter Glo. The following applies: human; MT-2 cells; concentration required to kill 50% of cells; read-out: CC50 VIH MT-2 μM. The protocol: All assays for assessing anti-HIV activity were taken in parallel to determine cellular viability of the culture in the presence or absence of different concentrations of the isolated molecule. It was followed exactly the same methodology as in the anti-HIV assay except with the addition of complete DMEM medium instead of supernatant viral, in the same proportion, and the detection of the viability was performed with the viability detection kit CellTiter Glo (Promega), following manufacturer instructions. Viability is directly proportional to the luciferase activity obtained. All data are expressed as percentage relative to a control with DMSO at the same concentration. Antiviral activity and toxicity curves were performed to the compound at different concentrations.
On the technique in general: Cellular ATP, detected with luciferase, serves as a proxy for viable cell number.

Molecules are shown by their SMILES.

For orientation: zone of inhibition means the extent of the growth-free halo in a diffusion test. Read a high zone of inhibition as a stronger effect on the plate. As usually defined, the IC50 is the point on the concentration scale where inhibition reaches its midpoint. For orientation: CC50 means the concentration that lowers cell viability or growth by half. For the compound `NNC(=O)C(=O)NNc1ccccc1` [MSG-119], the figures for the “Activity detected (mm)” value in [1] and in series [2] were 20 mm and 15 mm, respectively. The zone of inhibition at 150 µg/disc turned out to be 18 mm in series [3] (150 μg/disc); 22 mm in [4] (150 μg/disc); 24 mm in [5] (150 μg/disc); 20 mm in [6] (150 μg/disc); 21 mm in [7] (150 μg/disc); 12 mm in series [8] (150 μg/disc). Further, the zone of inhibition at 150 µg/disc in series [9] (150 μg/disc) was under 10 mm; in series [10] (150 μg/disc), 15 mm; in series [11] (150 μg/disc), 20 mm; in [12] (150 μg/disc) it was 26 mm. Besides, the zone of inhibition at 500 µg/disc in [3] (500 μg/disc) is over 40 mm; in series [4] (500 μg/disc), over 40 mm; in series [5] (500 μg/disc), over 40 mm; in [6] (500 μg/disc), over 40 mm; in series [7] (500 μg/disc), 24 mm; in series [8] (500 μg/disc) it was over 40 mm. In addition, the zone of inhibition at 500 µg/disc in [9] (500 μg/disc) is 20 mm; in [10] (500 μg/disc), over 40 mm; in [11] (500 μg/disc) it was over 40 mm; in series [12] (500 μg/disc) it was 35 mm. In addition, the IC50 in series [13] was found to be 7.11 µM. The CC50 in series [14] was over 100 µM.

The values are drawn from patent US11584710B2, “Compounds for treating infections” (HORITZONTS TECNOLOGICS HUNGARY KORLÁTOLT FELELOSSÉGU …, priority 2017, dated 2023).
